Assay results taken from patent US12116388B2, “Amylin receptor agonists” (Novo Nordisk A/S, priority 2022, dated 2024).
Starred links: 1 amine or outer side, 2 acyl side, 3 side chain; linkers in the order of their positions; H or OH if unused. Residues, ends and D or L forms follow the SMILES beside them. *: point of attachment. C18 diacid = O=C(O)CCCCCCCCCCCCCCCCC(=O)*; γGlu = O=C(O)[C@H](CCC(=O)[*:2])N[*:1]

Test: Oral pharmacokinetic profiles in Beagle dogs (SNAC tablets)
Assay type: in vivo
Conditions: oral tablet: 3 mg compound, 300 mg SNAC, 7.7 mg magnesium stearate; for half-life: male, dog, plasma, read-out: T½ (converted)
Summary of the method: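 Male Beagle dogs, fasted overnight, received an oral immediate-release tablet of 3 mg compound with 300 mg SNAC, 10 min after ~3.2 nmol/kg subcutaneous glucagon. EDTA plasma sampled up to 288 h post-dose; concentrations measured by ethanol protein precipitation and LC-MS for pharmacokinetic parameters.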

Structure (SMILES)	half-life	AUC/D	Cmax/D
CC[C@H](C)[C@H](NC(=O)[C@@H]1CCCN1C(=O)CNC(=O)[C@H](Cc1ccccc1)NC(=O)[C@H](CC(N)=O)NC(=O)[C@H](CC(=O)O)NC(=O)[C@H](CO)NC(=O)[C@H](CO)NC(=O)[C@H](Cc1c[nH]cn1)NC(=O)[C@H](Cc1c[nH]cn1)NC(=O)[C@H](CC(C)C)NC(=O)[C@H](Cc1ccccc1)NC(=O)[C@H](CCC(=O)O)NC(=O)[C@H](C)NC(=O)[C@H](CC(C)C)NC(=O)[C@H](CCCNC(=N)N)NC(=O)[C@H](C)NC(=O)[C@@H](NC(=O)[C@H](CCC(N)=O)NC(=O)[C@H](C)NC(=O)[C@@H](NC(=O)[C@H](CO)NC(=O)[C@H](CC(C)C)NC(=O)[C@H](Cc1c[nH]cn1)NC(=O)[C@H](CO)NC(=O)[C@H](C)NC(=O)CC[C@H](NC(=O)CCCCCCCCCCCCCCCCC(=O)O)C(=O)O)[C@@H](C)O)[C@@H](C)O)C(=O)N[C@@H](CC(C)C)C(=O)N1CCC[C@H]1C(=O)N1CCC[C@H]1C(=O)N[C@H](C(=O)N[C@@H](CC(=O)O)C(=O)N[C@H](C(=O)NCC(=O)N[C@@H](CO)C(=O)N[C@@H](CC(N)=O)C(=O)N[C@H](C(=O)N1CCC[C@H]1C(N)=O)[C@@H](C)O)C(C)C)[C@@H](C)O [Compound 14, N^1-[(4S)-4-carboxy-4-(17-carboxyheptadecanoylamino)butanoyl]-[Ala1,Ser2,His3,Leu4,Ser5,Ala7,Gln8,Ala10,Glu14,His17,Asp21,Pro25,Pro28,Pro29,Asp31,Pro37]-human amylin] ({C18 diacid-γGlu}-ASHLSTAQTARLAEFLHHSSDNFGPILPPTDVGSNTP-NH2)	113 h	20.76 kg·h/L	0.34 kg/L
CC[C@H](C)[C@H](NC(=O)[C@@H]1CCCN1C(=O)CNC(=O)[C@H](Cc1ccccc1)NC(=O)[C@H](Cc1c[nH]cn1)NC(=O)[C@H](Cc1c[nH]cn1)NC(=O)[C@H](CC(C)C)NC(=O)[C@H](Cc1ccccc1)NC(=O)[C@H](CCC(=O)O)NC(=O)[C@H](C)NC(=O)[C@H](CC(C)C)NC(=O)[C@H](CCCNC(=N)N)NC(=O)[C@H](C)NC(=O)[C@@H](NC(=O)[C@H](CCC(N)=O)NC(=O)[C@H](C)NC(=O)[C@@H](NC(=O)[C@H](CO)NC(=O)[C@H](CC(C)C)NC(=O)[C@H](Cc1c[nH]cn1)NC(=O)[C@H](CO)NC(=O)[C@H](C)NC(=O)CC[C@H](NC(=O)CC[C@H](NC(=O)CCCCCCCCCCCCCCCCC(=O)O)C(=O)O)C(=O)O)[C@@H](C)O)[C@@H](C)O)C(=O)N[C@@H](CC(C)C)C(=O)N1CCC[C@H]1C(=O)N1CCC[C@H]1C(=O)N[C@H](C(=O)N[C@@H](CC(=O)O)C(=O)N[C@H](C(=O)NCC(=O)N[C@@H](CO)C(=O)N[C@@H](CCC(=O)O)C(=O)N[C@H](C(=O)N1CCC[C@H]1C(N)=O)[C@@H](C)O)C(C)C)[C@@H](C)O [Compound 17, N^1-[(4S)-4-carboxy-4-[[(4S)-4-carboxy-4-(17-carboxyheptadecanoylamino)butanoyl]amino]butanoyl]-[Ala1,Ser2,His3,Leu4,Ser5,Ala7,Gln8,Ala10,Glu14,His17,Pro25,Pro28,Pro29,Asp31,Glu35,Pro37],des-(19-22)-human amylin] ({C18 diacid-γGlu-γGlu}-ASHLSTAQTARLAEFLHHFGPILPPTDVGSETP-NH2)	94.8 h	19.7 kg·h/L	0.28 kg/L
CC[C@H](C)[C@H](NC(=O)[C@H](C)NC(=O)CNC(=O)[C@H](Cc1ccccc1)NC(=O)[C@@H]1CCCN1C(=O)[C@H](CC(=O)O)NC(=O)[C@H](CO)NC(=O)[C@H](CO)NC(=O)[C@H](Cc1c[nH]cn1)NC(=O)[C@H](Cc1c[nH]cn1)NC(=O)[C@H](CC(C)C)NC(=O)[C@H](Cc1ccccc1)NC(=O)[C@H](CCC(=O)O)NC(=O)[C@H](C)NC(=O)[C@H](CC(C)C)NC(=O)[C@H](CCCNC(=N)N)NC(=O)[C@H](CCC(N)=O)NC(=O)[C@@H](NC(=O)[C@H](CCC(N)=O)NC(=O)[C@H](C)NC(=O)[C@@H](NC(=O)[C@H](CO)NC(=O)[C@H](CC(C)C)NC(=O)[C@H](CCC(N)=O)NC(=O)[C@H](CO)NC(=O)[C@H](C)NC(=O)CC[C@H](NC(=O)CCCCCCCCCCCCCCCCC(=O)O)C(=O)O)[C@@H](C)O)[C@@H](C)O)C(=O)N1CCC[C@H]1C(=O)N[C@@H](CO)C(=O)N[C@@H](CO)C(=O)N[C@H](C(=O)N[C@@H](CC(=O)O)C(=O)N[C@H](C(=O)NCC(=O)N1CCC[C@H]1C(=O)N[C@@H](CC(=O)O)C(=O)N[C@H](C(=O)N1CCC[C@H]1C(N)=O)[C@@H](C)O)C(C)C)[C@@H](C)O [Compound 24] ({C18 diacid-γGlu}-ASQLSTAQTQRLAEFLHHSSDPFGAIPSSTDVGPDTP-NH2)	120 h	31.21 kg·h/L	0.36 kg/L
CC[C@H](C)[C@H](NC(=O)[C@@H]1CCCN1C(=O)CNC(=O)[C@H](Cc1ccccc1)NC(=O)[C@H](CC(N)=O)NC(=O)[C@H](CC(=O)O)NC(=O)[C@H](CO)NC(=O)[C@H](CO)NC(=O)[C@H](Cc1c[nH]cn1)NC(=O)[C@H](Cc1c[nH]cn1)NC(=O)[C@H](CC(C)C)NC(=O)[C@H](Cc1ccccc1)NC(=O)[C@H](CCC(=O)O)NC(=O)[C@H](C)NC(=O)[C@H](CC(C)C)NC(=O)[C@H](CCCNC(=N)N)NC(=O)[C@H](C)NC(=O)[C@@H](NC(=O)[C@H](CCC(N)=O)NC(=O)[C@H](C)NC(=O)[C@@H](NC(=O)[C@H](CO)NC(=O)[C@H](CC(C)C)NC(=O)[C@H](CCC(N)=O)NC(=O)[C@H](CO)NC(=O)[C@H](C)NC(=O)CC[C@H](NC(=O)CCCCCCCCCCCCCCCCC(=O)O)C(=O)O)[C@@H](C)O)[C@@H](C)O)C(=O)N[C@@H](CC(C)C)C(=O)N1CCC[C@H]1C(=O)N1CCC[C@H]1C(=O)N[C@H](C(=O)N[C@@H](CC(=O)O)C(=O)N[C@H](C(=O)NCC(=O)N[C@@H](CO)C(=O)N[C@@H](CC(N)=O)C(=O)N[C@H](C(=O)N1CCC[C@H]1C(N)=O)[C@@H](C)O)C(C)C)[C@@H](C)O [Compound 22, N^1-[(4S)-4-carboxy-4-(17-carboxyheptadecanoylamino)butanoyl]-[Ala1,Ser2,Gln3,Leu4,Ser5,Ala7,Gln8,Ala10,Glu14,His17,Asp21,Pro25,Pro28,Pro29,Asp31,Pro37]-human amylin] ({C18 diacid-γGlu}-ASQLSTAQTARLAEFLHHSSDNFGPILPPTDVGSNTP-NH2)	96.6 h	24.43 kg·h/L	0.35 kg/L
